Measured values from US8551991B2, “1,2,3,4-tetrahydroquinoxaline derivative having glucocorticoid receptor binding activity” (Santen Pharmaceutical Co., Ltd., priority 2006, dated 2013).

Molecular target: T1, Recombinant human GR (Homo sapiens, UniProt P04150)
T1 construct: purchased Invitrogen P2816
T1 sequence (P04150 1-777): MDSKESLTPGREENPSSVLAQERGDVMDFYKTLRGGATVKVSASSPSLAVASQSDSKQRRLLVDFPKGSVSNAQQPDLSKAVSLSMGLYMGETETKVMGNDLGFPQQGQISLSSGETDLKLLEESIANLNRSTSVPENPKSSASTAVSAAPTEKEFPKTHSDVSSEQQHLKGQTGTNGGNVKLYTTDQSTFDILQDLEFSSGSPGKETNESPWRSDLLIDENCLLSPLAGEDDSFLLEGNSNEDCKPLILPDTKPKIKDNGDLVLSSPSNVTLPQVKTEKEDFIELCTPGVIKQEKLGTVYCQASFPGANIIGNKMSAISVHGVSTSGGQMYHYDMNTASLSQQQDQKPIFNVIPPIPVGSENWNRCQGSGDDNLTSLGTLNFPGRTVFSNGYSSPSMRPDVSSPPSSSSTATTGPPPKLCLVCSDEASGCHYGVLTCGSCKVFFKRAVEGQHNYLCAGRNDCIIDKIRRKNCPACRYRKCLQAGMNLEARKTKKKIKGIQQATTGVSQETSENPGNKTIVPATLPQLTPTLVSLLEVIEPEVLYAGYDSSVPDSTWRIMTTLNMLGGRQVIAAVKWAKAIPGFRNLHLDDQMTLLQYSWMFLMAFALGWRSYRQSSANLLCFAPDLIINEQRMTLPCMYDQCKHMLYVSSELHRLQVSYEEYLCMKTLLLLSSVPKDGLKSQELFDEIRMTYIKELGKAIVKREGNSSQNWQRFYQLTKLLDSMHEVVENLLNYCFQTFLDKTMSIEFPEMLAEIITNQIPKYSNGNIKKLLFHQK
Test: GR competitor assay by fluorescence polarization (binding activity to glucocorticoid receptor)
Details: 20 μM test compound solution, 25 μL per well plus 12.5 μL each of 4×GS1 and 4×GR solution; Fluormone GS1 ligand; positive control 2 mM dexamethasone; read-out: GR Binding ratio (%)
Method: 1. Evaluation Test for Binding Activity to Glucocorticoid Receptor (Hereinafter Referred to as “GR”)
In order to evaluate a binding activity to GR, a receptor competitor assay was carried out by a fluorescence polarization method. In the assay, a GR competitor assay kit (manufactured by Invitrogen, cat No. P2816) was used, and a procedure was carried out according to the protocol attached to the kit. Hereinafter, the specific method will be described.
GR screening buffer: A buffer containing 10 mM potassium phosphate (pH 7.4), 20 mM sodium molybdate (Na2MoO4), 0.1 mM ethylene diamine tetraacetic acid (EDTA), 5 mM dithiothreitol (DTT), 0.1 mM stabilizing peptide and 2% dimethylsulfoxide was prepared.
4×GS1 solution: Fluormone™ GS1, which is a fluorescent glucocorticoid ligand, was diluted with GR screening buffer, whereby a 4 nM solution was prepared.
4×GR solution: Recombinant human GR was diluted with GR screening buffer, whereby a 16 nM solution was prepared.
After a test compound was dissolved in dimethylsulfoxide, the resulting solution was diluted with GR screening buffer, whereby a 20 μM test compound solution was prepared.
1) The test compound solution was added in an amount of 25 μL into each well of a 96-well plate, and then, 4×GS1 solution and 4×GR solution were added in an amount of 12.5 μL into each well, respectively.
2) The plate was incubated in a dark place at room temperature for 2 to 4 hours.
3) By using a multimode plate reader, Analyst™ HT (manufactured by LJL Biosystems), fluorescence polarization of each well was measured. As the blank, a well containing GR screening buffer in place of the test compound and 4×GS1 solution was used.
4) The same procedure as that in the above 1) to 3) was carried out except that GR screening buffer was used in place of the test compound solution, and the obtained result was taken as the negative control.
5) The same procedure as that in the above 1) to 3) was carried out except that 2 mM dexamethasone was used in place of the test compound solution, and the obtained result was taken as the positive control.
A GR binding ratio (%) was calculated from the following equation.
GR binding ratio (%)=100×[1-(fluorescence polarization of test compound solution-fluorescence polarization of positive control solution)/(fluorescence polarization of negative control solution—fluorescence polarization of positive control solution)]

Row | inhibition at 10 µM [%] | SMILES
1 | 100 | COc1cc(O)ccc1-c1ccc2c(c1COc1cc(F)ccc1C)N(C)C(=O)C(C)(C)N2 [Compound 11, 8-(5-fluoro-2-methylphenoxymethyl)-7-(4-hydroxy-2-methoxyphenyl)-1,3,3-trimethyl-3,4-dihydro-1H-quinoxalin-2-one]
2 | 98 | COc1cc(OC(=O)c2ccccc2OC(C)=O)ccc1-c1ccc2c(c1COc1cc(F)ccc1C)N(C)C(=O)C(C)(C)N2 [Compound 15-4]
3 | 100 | COc1ccccc1NCc1c(-c2ccc(F)cc2OC)ccc2c1N(C)C(=O)C(C)(C)N2 [Compound 4-11]
4 | 100 | COc1ccc(Cl)cc1-c1ccc2c(c1COc1cc(F)ccc1C)N(C)C(=O)C(C)(C)N2 [Compound 6-15]
5 | 100 | COc1ccc(Cl)cc1-c1ccc2c(c1CNc1cc(F)ccc1C)N(C)C(=O)C(C)(C)N2 [Compound 4-7]
6 | 100 | COc1cc(F)ccc1-c1ccc2c(c1COc1cc([N+](=O)[O-])ccc1C)N(C)C(=O)C(C)(C)N2 [Compound 3-7]
7 | 100 | COc1cc(OC(=O)N2CCOCC2)ccc1-c1ccc2c(c1COc1cc(F)ccc1C)N(C)C(=O)C(C)(C)N2 [Compound 18-1, 8-(5-Fluoro-2-methylphenoxymethyl)-7-[2-methoxy-4-(morpholin-4-ylcarbonyloxy)phenyl]-1,3,3-trimethyl-3,4-dihydro-1H-quinoxalin-2-one]
8 | 100 | COc1ccc(Cl)cc1-c1ccc2c(c1COc1ccccc1CCO)N(C)C(=O)C(C)(C)N2 [Compound 3-10]
9 | 91 | COc1cc(O)ccc1-c1ccc2c(c1COC(=O)c1ccc(C)s1)N(C)C(=O)C(C)(C)N2 [Compound 13-2, 7-(4-Hydroxy-2-methoxyphenyl)-8-(5-methylthiophen-2-ylcarbonyloxymethyl)-1,3,3-trimethyl-3,4-dihydro-1H-quinoxalin-2-one]
10 | 100 | COc1cc(F)ccc1-c1ccc2c(c1COC(=O)c1ccc(Br)s1)N(C)C(=O)C(C)(C)N2 [Compound 2-16]
11 | 99 | COc1cc(F)ccc1-c1ccc2c(c1COC(=O)c1ccc(C)s1)N(C)C(=O)C(C)(C)N2 [Compound 2-9]
12 | 100 | COc1ccc(F)cc1-c1ccc2c(c1COC(=O)c1ccccc1)N(C)C(=O)C(C)(C)N2 [Compound 5-1, 8-Benzoyloxymethyl7-(5-fluoro-2-methoxyphenyl)-1,3,3-trimethyl-3,4-dihydro-1H-quinoxalin-2-one]
13 | 100 | COc1cc(OC(=O)c2ccccc2SC)ccc1-c1ccc2c(c1COc1cc(F)ccc1C)N(C)C(=O)C(C)(C)N2 [Compound 15-6]
14 | 100 | COc1ccc([N+](=O)[O-])cc1OCc1c(-c2ccc(OC(=O)c3ccccc3C)cc2OC)ccc2c1NC(=O)C(C)(C)N2 [Compound 22, 7-[2-Methoxy-4-(2-methylbenzoyloxy)phenyl]-8-(2-methoxy-5-nitrophenoxymethyl)-3,3-dimethyl-3,4-dihydro-1H-quinoxalin-2-one]
15 | 95 | COc1cc(OC(=O)c2sccc2Cl)ccc1-c1ccc2c(c1COc1cc(F)ccc1C)N(C)C(=O)C(C)(C)N2 [Compound 15-17]
16 | 100 | COc1cc(OC(=O)c2cccc(C(C)=O)c2)ccc1-c1ccc2c(c1COc1cc(F)ccc1C)N(C)C(=O)C(C)(C)N2 [Compound 15-13]

Row | inhibition at 10 µM [%] | SMILES
17 | 100 | COc1cc(OC(=O)c2ccccc2C)ccc1-c1ccc2c(c1CNc1cc(F)ccc1C)N(C)C(=O)C(C)(C)N2 [Compound 21-22, 8-(5-Fluoro-2-methylphenylaminomethyl)-7-[2-methoxy-4-(2-methylbenzoyloxy)phenyl]-1,3,3-trimethyl-3,4-dihydro-1H-quinoxalin-2-one]
18 | 100 | CCN1C(=O)C(C)(C)Nc2ccc(-c3cc(F)ccc3OC)c(COC(=O)c3ccc(C)cc3)c21 [Compound 5-18]
19 | 100 | COc1ccccc1NCc1c(-c2ccc(OC(=O)c3cccnc3C)cc2OC)ccc2c1N(C)C(=O)C(C)(C)N2 [Compound 21-12, 7-[2-Methoxy-4-(2-methylpyridin-3-ylcarbonyloxy)phenyl]-8-(2-methoxyphenylaminomethyl)-1,3,3-trimethyl-3,4-dihydro-1H-quinoxalin-2-one]
20 | 100 | COc1cc(OC(=O)c2ccc(C)nc2)ccc1-c1ccc2c(c1COc1cc(F)ccc1C)N(C)C(=O)C(C)(C)N2 [Compound 15-9]
21 | 100 | COc1cc(OC(=O)c2cocn2)ccc1-c1ccc2c(c1COc1cc(F)ccc1C)N(C)C(=O)C(C)(C)N2 [Compound 15-11]
22 | 100 | COc1ccc([N+](=O)[O-])cc1-c1ccc2c(c1COc1cc(F)ccc1C)N(C)C(=O)C(C)(C)N2 [Compound 6-27, 8-(5-fluoro-2-methylphenoxymethyl)-7-(2-methoxy-5-nitrophenyl)-1,3,3-trimethyl-3,4-dihydro-1H-quinoxalin-2-one]
23 | 100 | COc1cc(OC(=O)c2cccnc2OC)ccc1-c1ccc2c(c1COc1cc(F)ccc1C)N(C)C(=O)C(C)(C)N2 [Compound 15-22]
24 | 100 | COc1cc(OC(=O)c2cccnc2C)ccc1-c1ccc2c(c1COc1cc(F)ccc1C)N(C)C(=O)C(C)(C)N2 [Compound 15-2]
25 | 100 | COc1ccc(CO)cc1-c1ccc2c(c1COc1cc(F)ccc1C)N(C)C(=O)C(C)(C)N2 [Compound 9-1, 8-(5-Fluoro-2-methylphenoxymethyl)-7-(5-hydroxymethyl-2-methoxyphenyl)-1,3,3-trimethyl-3,4-dihydro-1H-quinoxalin-2-one]
26 | 100 | COc1cc(OC(=O)c2ccccc2C)ccc1-c1ccc2c(c1COc1cc(F)ccc1C)N(C)C(=O)C(C)(C)N2 [Compound 14-2]
27 | 100 | COc1cc(NC(=O)c2ccccc2Cl)ccc1-c1ccc2c(c1COc1cc(F)ccc1C)N(C)C(=O)C(C)(C)N2 [Compound 14-22]
28 | 100 | COc1cc(OC(=O)c2ccoc2)ccc1-c1ccc2c(c1COc1cc(F)ccc1C)N(C)C(=O)C(C)(C)N2 [Compound 14-11]
29 | 100 | COc1cc(OC(=O)c2ccccc2Cl)ccc1-c1ccc2c(c1COc1cc(F)ccc1C)N(C)C(=O)C(C)(C)N2 [Compound 14-4]
30 | 100 | COc1cc(F)ccc1-c1ccc2c(c1COc1cc(F)ccc1C)N(C)C(=O)C(C)(C)N2 [Compound 6-12]
31 | 98 | COc1ccccc1-c1ccc2c(c1COc1cc(F)ccc1C)N(C)C(=O)C(C)(C)N2 [Compound 6-8]
32 | 93 | COC(=O)Oc1ccc(-c2ccc3c(c2COc2cc(F)ccc2C)N(C)C(=O)C(C)(C)N3)c(OC)c1 [Compound 14-35]
